Among the test systems are CCRF-CEM; SW-620; NCI-H23; OVCAR-3; SK-MEL-5; KM-20L2; Malme-3M; U-251; HCT-116; TK-10; HOP-62; HCT-15; OVCAR-4; SK-OV-3; HOP-92; SR; NCI/ADR-RES; SF-268; T47D; NCI-H522.
What all share (test): NCI-60 cell line screen, 48 h

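Assay format: 96-well plates, 48-hour exposure. GI50 marks 50% less growth.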 The source made the active and inactive calls. Cut-off read from the data, not from the text of the source: active = GI50 up to about 1.1 µM and inactive = higher.

On to `Cc1ccc(S(=O)(=O)Nc2ccccc2C(C)(C)C)cc1`, for which the GI50 is 21.4 µM (inactive) in the assay with CCRF-CEM; 32.3 µM (inactive) in the assay on SW-620; 15.5 µM (inactive) in the assay on NCI-H23; 17.2 µM (inactive) with OVCAR-3; 15.2 µM (inactive) in the assay on SK-MEL-5; 19 µM (inactive) in the assay on KM-20L2. Also, the GI50 in the assay with Malme-3M was 30.6 µM (inactive); with U-251, 20.6 µM (inactive); in the assay on HCT-116 it was 15.2 µM (inactive); in the assay on TK-10 it was 37.1 µM (inactive); with HOP-62, 20 µM (inactive); with HCT-15, 20.7 µM. Further, the GI50 is 25.6 µM (inactive) in the assay on OVCAR-4 and 30.5 µM (inactive) in the assay on SK-OV-3.

For the molecule `Cn1c(N/N=C/c2ccc(Cl)cc2)nc(-c2ccc(Cl)cc2)c(C#N)c1=O`, the GI50 in the assay with HOP-92 was 22.3 µM (inactive); with CCRF-CEM, 25.4 µM (inactive); in the assay on SW-620, 31 µM (inactive); in the assay with NCI-H23, 18.7 µM (inactive); in the assay on SR, 2.26 µM (inactive); in the assay with OVCAR-3 it was 16.4 µM (inactive). In addition, the GI50 in the assay with NCI/ADR-RES was > 100 µM (inactive); in the assay on SF-268 it was 35.4 µM (inactive); in the assay with SK-MEL-5 it was 45.1 µM (inactive); in the assay with Malme-3M, 24.2 µM (inactive); in the assay on U-251, 29.9 µM (inactive); in the assay on HCT-116, 13.5 µM (inactive). Further, the GI50 is 29 µM (inactive) in the assay with TK-10; 12 µM (inactive) with HOP-62; 31.1 µM in the assay on HCT-15; > 100 µM (inactive) in the assay on T47D; 10.9 µM (inactive) with NCI-H522; 23.8 µM (inactive) with OVCAR-4. Also, in the assay on SK-OV-3, the GI50 is > 100 µM (inactive).

`N=C(N)NS(=O)(=O)c1ccc(NC(=O)c2cccc3c(NNc4ccc(C(=O)O)cc4)c4ccccc4nc23)cc1`: the GI50 in the assay with HOP-92 was 24.2 µM (inactive); in the assay with CCRF-CEM it was 25.8 µM (inactive); with SW-620, > 100 µM (inactive); in the assay on NCI-H23 it was > 100 µM (inactive); with SR, 33.5 µM (inactive); in the assay on OVCAR-3 it was 46.7 µM (inactive). In addition, the GI50 is > 100 µM (inactive) in the assay with NCI/ADR-RES; 58.7 µM (inactive) with SF-268; 99.1 µM (inactive) in the assay with SK-MEL-5; 93.1 µM (inactive) in the assay on Malme-3M; 34.6 µM (inactive) in the assay on U-251; 59 µM (inactive) with HCT-116. For the same molecule, the GI50 is > 100 µM (inactive) with TK-10; > 100 µM (inactive) in the assay on HOP-62; greater than 100 µM with HCT-15; 39.6 µM (inactive) with T47D; 51.1 µM (inactive) in the assay on NCI-H522; > 100 µM (inactive) in the assay on OVCAR-4. For the same molecule, the GI50 with SK-OV-3 is 47.2 µM (inactive).

On to `O=C1c2sccc2C(=O)c2c(CO)csc21`, for which the GI50 in the assay with HOP-92 was 7.5 µM (inactive); in the assay with CCRF-CEM, 3.37 µM (inactive); in the assay with SW-620, 6.98 µM (inactive); in the assay with NCI-H23, 2.07 µM (inactive); in the assay on SR, 3.42 µM (inactive); in the assay on OVCAR-3, 1.9 µM (inactive). The GI50 with NCI/ADR-RES is 3.63 µM (inactive); with SF-268, 6.5 µM (inactive); in the assay on SK-MEL-5 it was 0.83 µM (active); with Malme-3M, 1.91 µM (inactive); with U-251, 6.03 µM (inactive); in the assay on HCT-116, 3.04 µM (inactive). Moreover, the GI50 is 7.05 µM (inactive) in the assay with TK-10; 4.71 µM (inactive) in the assay on HOP-62; 2.49 µM with HCT-15; 4.71 µM (inactive) with T47D; 1.92 µM (inactive) with NCI-H522; 2.16 µM (inactive) in the assay with OVCAR-4. Besides, in the assay with SK-OV-3, the GI50 is 11.4 µM (inactive).

Take `Nc1cc(=O)n(-c2ccccc2)c(=S)n1-c1ccccc1`: the GI50 with CCRF-CEM, with SW-620, in the assay on OVCAR-3, in the assay on SF-268, with SK-MEL-5 and with KM-20L2 was > 100 µM (inactive) in each case. Further, the GI50 is > 100 µM (inactive) with Malme-3M; > 100 µM (inactive) in the assay on U-251; > 100 µM (inactive) with HCT-116; > 100 µM (inactive) with TK-10; > 100 µM (inactive) with HOP-62; greater than 100 µM with HCT-15. The GI50 with NCI-H522 and with SK-OV-3 was > 100 µM (inactive) in each case.

`CC1(C)OCC(C2OC(C)(C)OC2[C@H]2O[C@@]3(O)[C@H]4[C@H](C=CC[C@@H]42)[C@@H](OCc2ccccc2)[C@H](OCc2ccccc2)[C@H]3OCc2ccccc2)O1` (some centres not stated): the GI50 with HOP-92 is 44.2 µM (inactive); with CCRF-CEM it was 8.63 µM (inactive); with SW-620, 27.8 µM (inactive); with NCI-H23, 28.4 µM (inactive); with SR, 11 µM (inactive); in the assay on OVCAR-3, 52.2 µM (inactive). Besides, the GI50 was 28.6 µM (inactive) in the assay with NCI/ADR-RES; 70 µM (inactive) in the assay on SF-268; 43.2 µM (inactive) with SK-MEL-5; > 100 µM (inactive) with Malme-3M; 53.6 µM (inactive) in the assay with U-251; 16.1 µM (inactive) in the assay on HCT-116. Moreover, the GI50 with TK-10 is 32.4 µM (inactive); with HOP-62, > 100 µM (inactive); in the assay with HCT-15, 21.9 µM; with T47D, 34.2 µM (inactive); with NCI-H522, 37.1 µM (inactive); in the assay with OVCAR-4, 41 µM (inactive). The GI50 in the assay on SK-OV-3 is > 100 µM (inactive).

With `O=c1c2cc(I)ccc2nc(SCc2n[nH]c(=S)o2)n1Cc1ccccc1`, the GI50 was 14.3 µM (inactive) in the assay with HOP-92; 18.4 µM (inactive) in the assay with CCRF-CEM; 19.7 µM (inactive) in the assay with SW-620; 16.3 µM (inactive) in the assay with NCI-H23; 20.5 µM (inactive) with SR; 15.2 µM (inactive) in the assay with OVCAR-3. The GI50 is 19.1 µM (inactive) with NCI/ADR-RES; 17.5 µM (inactive) in the assay on SF-268; 13.2 µM (inactive) in the assay on SK-MEL-5; 17.9 µM (inactive) in the assay with Malme-3M; 17.6 µM (inactive) with U-251; 16 µM (inactive) in the assay with HCT-116. Moreover, the GI50 was 21 µM (inactive) in the assay on TK-10; 19.1 µM (inactive) with HOP-62; 17.3 µM in the assay with HCT-15; 14.8 µM (inactive) in the assay with T47D; 14.2 µM (inactive) in the assay on NCI-H522; 18.1 µM (inactive) in the assay with OVCAR-4. Besides, the GI50 with SK-OV-3 is 23.4 µM (inactive).

Turning to `COc1ccc(/C=C/C(=O)/C=C/c2ccc(OC)cc2)cc1`, the GI50 is 32.5 µM (inactive) with HOP-92; 31.8 µM (inactive) in the assay with CCRF-CEM; 23.7 µM (inactive) with SW-620; > 100 µM (inactive) in the assay on NCI-H23; 22.5 µM (inactive) in the assay with SR; 32.1 µM (inactive) in the assay with OVCAR-3. Besides, the GI50 with NCI/ADR-RES is 97.1 µM (inactive); with SF-268, 54.6 µM (inactive); in the assay with SK-MEL-5, 31.3 µM (inactive); in the assay with Malme-3M, > 100 µM (inactive); in the assay with U-251 it was 23.7 µM (inactive); in the assay with HCT-116, 11.2 µM (inactive). Besides, the GI50 in the assay on TK-10 is 73.3 µM (inactive); in the assay on HOP-62, > 100 µM (inactive); in the assay with HCT-15, 47.8 µM; in the assay on T47D, 55.3 µM (inactive); in the assay with NCI-H522 it was 42.8 µM (inactive); with OVCAR-4, 43.5 µM (inactive). Also, the GI50 in the assay with SK-OV-3 was > 100 µM (inactive).

(Values after ChEMBL document CHEMBL1201862, “PubChem BioAssay data set” (2004).)
